PubChem BioAssay AID1963832 (Molecular Pharmacology Branch, DTP, NCI, 2024)

Test system: 885724-159-R-J1-PDC complex spheroid viability
Experiment: Anticancer human tumor 885724-159-R-J1-PDC patient-derived pancreatic adenocarcinoma cell line growth inhibition [POLQ]
Conditions: for IC50: curve of first compound; for viability, T/C: stronger effect = lower value
Summary of the method: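 Growth inhibition in 3D: complex spheroids (tumor PDC, HUVEC, MSC) treated with POLQ inhibitor combinations; where Cmax unknown, highest tested concentration 10 microM, except SN-38 at 1 microM.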

[1] = second compound 0.0316 µM, first compound 0.0316 µM
[2] = second compound 0.0316 µM, first compound 0.1 µM
[3] = second compound 0.0316 µM, first compound 0.316 µM
[4] = second compound 0.0316 µM, first compound 1 µM
[5] = second compound 0.1 µM, first compound 0.0316 µM
[6] = second compound 0.1 µM, first compound 0.1 µM
[7] = second compound 0.1 µM, first compound 0.316 µM
[8] = second compound 0.1 µM, first compound 1 µM
[9] = second compound 0.316 µM, first compound 0.0316 µM
[10] = second compound 0.316 µM, first compound 0.1 µM
[11] = second compound 0.316 µM, first compound 0.316 µM
[12] = second compound 0.316 µM, first compound 1 µM
[13] = second compound 1 µM, first compound 0.0316 µM
[14] = second compound 1 µM, first compound 0.1 µM
[15] = second compound 1 µM, first compound 0.316 µM
[16] = second compound 1 µM, first compound 1 µM
[17] = second compound 3.16 µM, first compound 0.0316 µM
[18] = second compound 3.16 µM, first compound 0.1 µM
[19] = second compound 3.16 µM, first compound 0.316 µM
[20] = second compound 3.16 µM, first compound 1 µM
[21] = second compound 10 µM, first compound 0.0316 µM
[22] = second compound 10 µM, first compound 0.1 µM
[23] = second compound 10 µM, first compound 0.316 µM
[24] = second compound 10 µM, first compound 1 µM
[25] = second compound 0.0316 µM, first compound 0.00316 µM
[26] = second compound 0.0316 µM, first compound 0.01 µM
[27] = second compound 0.1 µM, first compound 0.00316 µM
[28] = second compound 0.1 µM, first compound 0.01 µM
[29] = second compound 0.316 µM, first compound 0.00316 µM
[30] = second compound 0.316 µM, first compound 0.01 µM
[31] = second compound 1 µM, first compound 0.00316 µM
[32] = second compound 1 µM, first compound 0.01 µM
[33] = second compound 3.16 µM, first compound 0.00316 µM
[34] = second compound 3.16 µM, first compound 0.01 µM
[35] = second compound 10 µM, first compound 0.00316 µM
[36] = second compound 10 µM, first compound 0.01 µM
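Further: spheroids exposed to compounds for 7 days.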

COc1ccc([C@@H](O)c2cc(-c3ncnc4cc(N5CCOCC5)ccc34)c(F)cc2Cl)nn1 + Nc1ccc(C#CCN(C(=O)Cc2ncc(C(F)(F)F)cc2C(F)(F)F)c2ccc(F)cc2)nn1 was tested, and the IC50 (second compound 0.0316 µM) was 3.7 µM, the IC50 (second compound 0.1 µM) was 3.83 µM and the IC50 (second compound 0.316 µM) was 4.24 µM. For the same compound, the IC50 (second compound 1 µM) was 4.29 µM, the IC50 (second compound 3.16 µM) was 3.94 µM and the IC50 (second compound 10 µM) was 4.85 µM. The viability, T/C [1] was 83.2%, the viability, T/C [2] was 105% and the viability, T/C [3] was 73.6%. The viability, T/C [4] was 74.9%, the viability, T/C (second compound 0.0316 µM, first compound 3.16 µM) was 52.3% and the viability, T/C (second compound 0.0316 µM, first compound 10 µM) was 33.1%. For the same compound, the viability, T/C [5] was 100%, the viability, T/C [6] was 89.6% and the viability, T/C [7] was 84.4%. The viability, T/C [8] was 75.1%, the viability, T/C (second compound 0.1 µM, first compound 3.16 µM) was 51% and the viability, T/C (second compound 0.1 µM, first compound 10 µM) was 32.9%. The viability, T/C [9] was 98.7%, the viability, T/C [10] was 103% and the viability, T/C [11] was 86%. It also gave a viability, T/C [12] of 73%, a viability, T/C (second compound 0.316 µM, first compound 3.16 µM) of 57.5% and a viability, T/C (second compound 0.316 µM, first compound 10 µM) of 32.8%. The viability, T/C [13] was 92.8%, the viability, T/C [14] was 86.3% and the viability, T/C [15] was 81.5%. It also gave a viability, T/C [16] of 69.5%, a viability, T/C (second compound 1 µM, first compound 3.16 µM) of 57.5% and a viability, T/C (second compound 1 µM, first compound 10 µM) of 33.3%. For the same compound, the viability, T/C [17] was 91.5%, the viability, T/C [18] was 93.9% and the viability, T/C [19] was 82.9%. The viability, T/C [20] was 67.8%, the viability, T/C (second compound 3.16 µM, first compound 3.16 µM) was 56% and the viability, T/C (second compound 3.16 µM, first compound 10 µM) was 33.5%. It also gave a viability, T/C [21] of 96.7%, a viability, T/C [22] of 89.4% and a viability, T/C [23] of 87.4%. The viability, T/C [24] was 70.6%, the viability, T/C (second compound 10 µM, first compound 3.16 µM) was 59.1% and the viability, T/C (second compound 10 µM, first compound 10 µM) was 36.6%.

COc1cccc(OCCCN)c1-c1cc(Nc2cnc(C#N)cn2)n[nH]1 + Nc1ccc(C#CCN(C(=O)Cc2ncc(C(F)(F)F)cc2C(F)(F)F)c2ccc(F)cc2)nn1 was tested, and the IC50 (second compound 0.0316 µM) was 0.0153 µM, the IC50 (second compound 0.1 µM) was 0.0138 µM and the IC50 (second compound 0.316 µM) was 0.0142 µM. It also gave an IC50 (second compound 1 µM) of 0.0155 µM, an IC50 (second compound 3.16 µM) of 0.0182 µM and an IC50 (second compound 10 µM) greater than 1 µM. For the same compound, the viability, T/C [25] was 79%, the viability, T/C [26] was 52% and the viability, T/C [1] was 46.1%. The viability, T/C [2] was 46%, the viability, T/C [3] was 45.7% and the viability, T/C [4] was 47.7%. It also gave a viability, T/C [27] of 74%, a viability, T/C [28] of 53% and a viability, T/C [5] of 43.2%. The viability, T/C [6] was 43.3%, the viability, T/C [7] was 43.3% and the viability, T/C [8] was 48.1%. The viability, T/C [29] was 77.3%, the viability, T/C [30] was 51.5% and the viability, T/C [9] was 47.3%. For the same compound, the viability, T/C [10] was 42.9%, the viability, T/C [11] was 43% and the viability, T/C [12] was 48.6%. It also gave a viability, T/C [31] of 73.7%, a viability, T/C [32] of 51.1% and a viability, T/C [13] of 50.1%. The viability, T/C [14] was 41.3%, the viability, T/C [15] was 41% and the viability, T/C [16] was 46.7%. It also gave a viability, T/C [33] of 68.4%, a viability, T/C [34] of 52.3% and a viability, T/C [17] of 46.6%. The viability, T/C [18] was 44%, the viability, T/C [19] was 53.6% and the viability, T/C [20] was 48.1%. It also gave a viability, T/C [35] of 72.3%, a viability, T/C [36] of 57.5% and a viability, T/C [21] of 46.1%. The viability, T/C [22] was 49.7%, the viability, T/C [23] was 53.2% and the viability, T/C [24] was 51.2%.

Work on Cn1ncnc1[C@H]1c2n[nH]c(=O)c3cc(F)cc(c23)N[C@@H]1c1ccc(F)cc1 + Nc1ccc(C#CCN(C(=O)Cc2ncc(C(F)(F)F)cc2C(F)(F)F)c2ccc(F)cc2)nn1 yielded an IC50 (second compound 0.0316 µM) greater than 0.1 µM, an IC50 (second compound 0.1 µM) greater than 0.1 µM and an IC50 (second compound 0.316 µM) greater than 0.1 µM. The IC50 (second compound 1 µM) was greater than 0.1 µM, the IC50 (second compound 3.16 µM) was greater than 0.1 µM and the IC50 (second compound 10 µM) was greater than 0.1 µM. It also gave a viability, T/C (second compound 0.0316 µM, first compound 0.000316 µM) of 95.1%, a viability, T/C (second compound 0.0316 µM, first compound 0.001 µM) of 86.4% and a viability, T/C [25] of 90.3%. The viability, T/C [26] was 90.7%, the viability, T/C [1] was 88.1% and the viability, T/C [2] was 86.8%. The viability, T/C (second compound 0.1 µM, first compound 0.000316 µM) was 104%, the viability, T/C (second compound 0.1 µM, first compound 0.001 µM) was 86.5% and the viability, T/C [27] was 90.1%. The viability, T/C [28] was 88.1%, the viability, T/C [5] was 93.1% and the viability, T/C [6] was 80.4%. For the same compound, the viability, T/C (second compound 0.316 µM, first compound 0.000316 µM) was 99.9%, the viability, T/C (second compound 0.316 µM, first compound 0.001 µM) was 94.1% and the viability, T/C [29] was 89.8%. The viability, T/C [30] was 84.8%, the viability, T/C [9] was 87.4% and the viability, T/C [10] was 75.7%. The viability, T/C (second compound 1 µM, first compound 0.000316 µM) was 99.2%, the viability, T/C (second compound 1 µM, first compound 0.001 µM) was 88% and the viability, T/C [31] was 89.5%. It also gave a viability, T/C [32] of 95%, a viability, T/C [13] of 92.2% and a viability, T/C [14] of 81.7%. It also gave a viability, T/C (second compound 3.16 µM, first compound 0.000316 µM) of 97.8%, a viability, T/C (second compound 3.16 µM, first compound 0.001 µM) of 88% and a viability, T/C [33] of 90%. It also gave a viability, T/C [34] of 87%, a viability, T/C [17] of 83.9% and a viability, T/C [18] of 83.7%. It also gave a viability, T/C (second compound 10 µM, first compound 0.000316 µM) of 105%, a viability, T/C (second compound 10 µM, first compound 0.001 µM) of 92.1% and a viability, T/C [35] of 96.1%. The viability, T/C [36] was 92.2%, the viability, T/C [21] was 92.4% and the viability, T/C [22] was 84%.
